Source: US20060240494A1, “Biocidal molecules, macromolecular targets and methods of production and use” (priority 2000, published 2006)
Where two headings read alike, the source gives them in different places. Non-standard residues stand in square brackets, D forms with d. No end group written: not given here. *: point of attachment. Biotin = O=C1N[C@H]2[C@H](CS[C@H]2CCCCC(=O)*)N1

Legend:
E. coli LPS = conditions: nitrocellulose membrane-bound LPS
[1] = biological target: E. coli DnaK aa583-615, hinge region between helices D and E (Escherichia coli, UniProt P0A6Y8); conditions: 5 μg fragment; 10 μg/mL biotin-labeled peptide
Description: (§1) A control strip was stained with amido black 10B to verify the presence of all DnaK fragments on the nitrocellulose sheet.

Hsp70 = Hsp70 (Homo sapiens, UniProt P0DMV8); conditions: nitrocellulose membrane-bound protein; 10 μg/ml peptide
[2] = test system: E. coli strains (including TG-1, or K-12)
GroEL = GroEL (Escherichia coli, UniProt P0A6F5); conditions: nitrocellulose membrane-bound protein; 10 μg/ml peptide
[3] = biological target: E. coli DnaK aa397-439, conventional peptide binding pocket (Escherichia coli, UniProt P0A6Y8); conditions: non-specific binding; 10 μg/mL biotin-labeled peptide
Description: as §1

DnaK = DnaK (Escherichia coli, UniProt P0A6Y8); conditions: 1 μg DnaK; biotin-labeled peptide
LPS from S. typhimurium = conditions: nitrocellulose membrane-bound LPS
recombinant E. coli DnaK = biological target: T1, recombinant E. coli DnaK (Escherichia coli, UniProt P0A6Y8); assay: EnzChek ATPase assay, recombinant DnaK; type: biochemical; conditions: 50 molar equivalents of peptide; 22° C., 30 min; UV absorbance at 360 nm
T1 construct: purchased StressGen, Victoria, Canada
Description: To determine whether the proline-rich antibacterial peptides that were predicted to bind to DnaK between the peptide binding pocket and the C-terminus would interfere with ATPase activity, a recently developed continuous spectrophotometric (colorimetric) ATPase activity assay [Rieger, C. E. et al, (1997) Anal. Biochem. 246: 86-95] was used. This assay uses using 2-amino-6-mercapto-7-methylpurine ribonucleoside (MESG)/purine nucleoside phosphorylase reaction to detect the released inorganic phosphate (EnzChek ATPase determination kit from Molecular Probes, Eugene, USA). Assays were performed in 500 μL tubes in duplicates in a total volume of 125 μL containing 20 mM tris(hydroxymethyl)amino-ethane (Tris)-HCl, pH 7.6, 1 mM MgCl2, […] (except in assaying the baseline), 5 μg of DnaK (recombinant DnaK protein from StressGen,Victoria, Canada) and 50 molar equivalents of the particular peptide, MESG and the purine nucleoside phosphorylase recommended by the manufacturer. After incubation at 22° C. for 30 min, 100 μL of the reaction mixture was transferred to a quartz cuvette and the ultraviolet (UV) absorbance at 360 nm was measured. The assay was run in a miniaturized form to increase the concentration and therefore the enzymatic activity of DnaK. In a larger, standard format the ATPase activity of DnaK without peptide addition was 6 pmol/μg/min, in line with the published data of 4 pmol/μg/min [Liberek, K. et al, (1991) Proc. Natl. Acad. Sci. USA 88: 2874-2878].

[4] = test system: alkaline phosphatase activities of live E. coli TG-1 cells; type: cell-based
[5] = test system: β-galactosidase activities of live E. coli TG-1 cells; type: cell-based
E. coli D22 = conditions: Otvos et al, 2000, Protein Science; cited from earlier work
[6] = biological target: E. coli DnaK fragment aa583-615 (D-E helix hinge) (Escherichia coli, UniProt P0A6Y8); assay: Fluorescence polarization with synthetic DnaK fragment aa583-615; type: binding; conditions: Tris HCl at pH 8.0; for binding to E. coli D-E helix hinge region aa583-615 at high concentration: 128 μM fragment
Description: The binding of the synthetic DnaK fragments to their fluorescein-labeled pyrrhocoricin counterparts was also assessed in solution, by fluorescence polarization [Lundblad, J. R. et al, (1996) Mol. Endocrinol. 10: 607-612]. For these experiments, the unlabeled peptides were serially diluted in PBS (pH 7.4) or 0.1 M Tris-HCl (pH 8.0) containing 0.1 M ethylene-diamine-tetraacetic acid (EDTA) in 50 μL final volume in 6×50 mm disposable glass borosilicate tubes. The fluoresceinated peptides were added to each tube in a 50 μL aliquot to a final concentration of 1 nM and tubes were incubated at 37° C. for 5 minutes. The extent of fluorescence anisotropy was measured on a Beacon 2000 fluorescence polarization instrument (PanVera, Madison, Wis.) and calculated as millipolarization values. The filters used were 485 nm excitation and 535 nm emission with 3 nm band width. Non-linear curve fitting was done by using a dose-response logistical transition [y=a0+a1/(1+x/a2)^a^3] and the Levenberg-Marquardt Algorithm within the SlideWrite software package. The provided Kd value (a2 coefficient) was calculated by the program.
To quantitatively characterize the pyrrhocoricin—D-E helix interaction, the complete binding curves were measured for E. coli DnaK fragments aa583-615 and aa588-615, both of SEQ ID NO: 10.

[7] = biological target: T2, S. aureus DnaK 554-585 (D-E helix fragment) (Staphylococcus aureus, UniProt P45554); assay: Fluorescence polarization with S. aureus DnaK D-E helix fragment; type: binding; conditions: Tris HCl at pH 8.0
T2 sequence (P45554 554-585 limits assumed): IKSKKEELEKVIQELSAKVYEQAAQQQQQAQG

[8] = biological target: blocked E. coli DnaK fragment aa591-615 (Escherichia coli, UniProt P0A6Y8); type: binding
[9] = Hoffmann et al, 1999; cited from earlier work
[10] = peptide 32 μg/mL, live E. coli TG-1, four independent assays
[11] = peptide 32 μg/mL, live E. coli TG-1, three independent assays

T1 sequence (P0A6Y8 whole entry): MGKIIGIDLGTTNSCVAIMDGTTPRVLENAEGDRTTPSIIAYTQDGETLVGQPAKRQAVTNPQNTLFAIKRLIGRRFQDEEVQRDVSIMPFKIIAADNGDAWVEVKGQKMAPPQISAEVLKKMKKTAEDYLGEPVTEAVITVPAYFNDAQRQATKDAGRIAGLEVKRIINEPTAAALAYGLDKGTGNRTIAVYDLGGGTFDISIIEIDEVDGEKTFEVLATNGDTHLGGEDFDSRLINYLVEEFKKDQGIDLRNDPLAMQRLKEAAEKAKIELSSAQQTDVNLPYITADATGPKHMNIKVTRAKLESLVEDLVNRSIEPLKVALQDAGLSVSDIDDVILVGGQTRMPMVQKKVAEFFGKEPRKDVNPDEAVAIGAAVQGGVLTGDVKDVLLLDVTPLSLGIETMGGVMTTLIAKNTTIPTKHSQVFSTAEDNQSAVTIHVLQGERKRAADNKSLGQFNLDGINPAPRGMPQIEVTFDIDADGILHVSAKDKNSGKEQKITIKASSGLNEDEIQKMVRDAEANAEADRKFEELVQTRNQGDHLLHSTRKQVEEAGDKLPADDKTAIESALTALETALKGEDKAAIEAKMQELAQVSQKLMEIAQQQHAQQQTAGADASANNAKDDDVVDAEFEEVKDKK
E. coli DnaK fragment aa583-615 (D-E helix hinge), sequence (P0A6Y8 584-616): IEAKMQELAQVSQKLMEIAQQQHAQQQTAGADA
GroEL, sequence (P0A6F5 2-548 limits assumed): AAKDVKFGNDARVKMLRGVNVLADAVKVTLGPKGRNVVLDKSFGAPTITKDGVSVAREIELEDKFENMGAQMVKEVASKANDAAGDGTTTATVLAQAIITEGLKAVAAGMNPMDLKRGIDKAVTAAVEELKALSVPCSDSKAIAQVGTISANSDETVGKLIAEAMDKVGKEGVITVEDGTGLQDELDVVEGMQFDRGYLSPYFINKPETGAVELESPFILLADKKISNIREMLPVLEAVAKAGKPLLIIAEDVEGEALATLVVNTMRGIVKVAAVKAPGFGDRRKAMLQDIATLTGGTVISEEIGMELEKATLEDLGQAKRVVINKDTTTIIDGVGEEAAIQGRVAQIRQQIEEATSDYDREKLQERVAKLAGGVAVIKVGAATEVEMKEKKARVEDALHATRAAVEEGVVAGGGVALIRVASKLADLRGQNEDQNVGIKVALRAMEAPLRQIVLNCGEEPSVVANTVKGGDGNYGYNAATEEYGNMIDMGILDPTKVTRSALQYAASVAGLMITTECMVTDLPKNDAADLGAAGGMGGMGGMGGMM
DnaK, sequence (P0A6Y8 whole entry): as the sequence (P0A6Y8 whole entry) above
E. coli DnaK aa397-439, conventional peptide binding pocket, sequence (P0A6Y8 397-439): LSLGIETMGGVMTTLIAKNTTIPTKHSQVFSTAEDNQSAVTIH
E. coli DnaK aa583-615, hinge region between helices D and E, sequence (P0A6Y8 584-616 limits assumed): as the sequence (P0A6Y8 584-616) above
blocked E. coli DnaK fragment aa591-615, sequence (P0A6Y8 592-616 limits assumed): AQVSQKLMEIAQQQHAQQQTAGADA
Hsp70, sequence (P0DMV8 whole entry): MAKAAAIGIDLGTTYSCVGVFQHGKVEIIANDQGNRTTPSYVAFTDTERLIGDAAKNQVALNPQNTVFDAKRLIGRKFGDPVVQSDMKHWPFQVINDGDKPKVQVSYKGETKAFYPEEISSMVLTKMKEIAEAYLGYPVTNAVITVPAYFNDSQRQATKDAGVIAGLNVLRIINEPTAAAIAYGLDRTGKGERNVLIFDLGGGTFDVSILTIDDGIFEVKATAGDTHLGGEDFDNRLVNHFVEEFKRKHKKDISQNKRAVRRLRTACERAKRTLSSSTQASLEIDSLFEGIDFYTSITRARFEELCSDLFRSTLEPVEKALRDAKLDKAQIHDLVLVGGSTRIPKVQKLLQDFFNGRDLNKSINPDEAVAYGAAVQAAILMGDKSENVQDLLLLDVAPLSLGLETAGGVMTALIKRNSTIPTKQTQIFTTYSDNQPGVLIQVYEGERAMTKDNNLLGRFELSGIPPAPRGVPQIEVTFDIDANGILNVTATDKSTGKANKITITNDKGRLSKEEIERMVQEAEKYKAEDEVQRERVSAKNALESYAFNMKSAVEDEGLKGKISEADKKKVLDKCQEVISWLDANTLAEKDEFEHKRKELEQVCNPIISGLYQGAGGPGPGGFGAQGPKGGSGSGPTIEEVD

Substance: Biotin-KVDKGSYLPRPTPPRPIYNRN [biotin-K-pyrrhocoricin]
- binding to E. coli LPS on Western-blot (E. coli LPS): did not label LPS bands
- dot blot binding to D-E helix hinge fragment [1]: bound
- binding to Hsp70 on the peptide blot (Hsp70): very weak peptide binding
- concentration range killing E. coli strains [2]: submicromolar range
- binding to GroEL on the peptide blot (GroEL): very weak peptide binding
- dot blot binding to peptide-binding pocket fragment [3]: similarly bound
- binding to DnaK on the peptide blot (DnaK): bound strongly
- binding to S. typhimurium LPS on Western-blot (LPS from S. typhimurium): did not label LPS bands

Substance: Cecropin A: membrane-active antimicrobial peptide; purchased from Bachem (KWKLFKKIEKVGQNIRDGIIKAGPAVAVVGQATQIAK)
- effect on ATPase activity of recombinant DnaK (recombinant E. coli DnaK): did not influence

Substance: Conantokin G
- Inhibition of enzymatic activity after 1 hour (%) Alkaline Phosphatase [4]: (−3) ± 23%
- Inhibition of enzymatic activity after 1 hour (%) β-Galactosidase [5]: (−10) ± 10%

Substance: D-pyrrhocoricin: SEQ ID NO: 3 with all amino acids in the D configuration; inactive analog ([dV][dD][dK]G[dS][dY][dL][dP][dR][dP][dT][dP][dP][dR][dP][dI][dY][dN][dR][dN])
- Inhibition of enzymatic activity after 1 hour (%) Alkaline Phosphatase [4, 10]: (−6) ± 16%
- killing of E. coli D22 (E. coli D22): completely inactive
- Inhibition of enzymatic activity after 1 hour (%) β-Galactosidase [5, 11]: (−4) ± 43%
- effect on ATPase activity of recombinant DnaK (recombinant E. coli DnaK): negligible effect

Substance: Magainin 2: antibacterial peptide that kills bacteria by disintegrating the membrane; from Bachem (GIGKFLHSAKKFGKAFVGEIMNS)
- Inhibition of enzymatic activity after 1 hour (%) Alkaline Phosphatase [4, 10]: (−23) ± 38%
- Inhibition of enzymatic activity after 1 hour (%) β-Galactosidase [5, 11]: (−50) ± 55%
- effect on ATPase activity of recombinant DnaK (recombinant E. coli DnaK): did not influence

Substance: NTDGSTDYGILQINSR
- binding to E. coli D-E helix hinge region aa583-615 ([6]; labeled peptide 1 nM): failed to bind

Substance: N—F-apidaecin: apidaecin with fluorescein label attached at the N-terminus
- binding to S. aureus D-E helix fragment [7]: failed to bind
- binding to E. coli D-E helix hinge region aa583-615 at high concentration [6]: some binding

Substance: N—F-drosocin: drosocin with fluorescein label attached at the N-terminus (fluorescein-KGKPRPYSPRPTSHPRPIRV)
- binding to S. aureus D-E helix fragment [7]: failed to bind
- binding to blocked E. coli DnaK fragment aa591-615 [8]: failed to bind
- binding to E. coli D-E helix hinge region aa583-615 at high concentration [6]: some binding

Substance: native glycosylated drosocin: native drosocin glycopeptide with a disaccharide in the mid-chain position (GKPRPYSPRPTSHPRPIRV; also: O-glycosylated disaccharide in mid-chain position; UniProt P36193 22-40, looked up)
- antibacterial activity when injected into mice [9]: no antibacterial activity
